{"source": "patent US20070059297A1", "about": "“Methods and compositions for improving visual acuity” (Nestec, S.A., priority 2005, published 2007)", "origin": "cited, not measured here", "test_system": "rat retina neuronal cells", "conditions": "in vitro incubation", "data": [{"smiles": "CC/C=C\\C/C=C\\C/C=C\\C/C=C\\C/C=C\\C/C=C\\CCC(=O)O", "note": "[DHA, docosahexaenoic acid]", "values": [{"measurement": "DHA content of cells incubated with DHA versus cells incubated with other fatty acids", "result": "four- to six-fold more DHA"}]}]}
